{"source": "patent US3995061A", "about": "“Pharmaceutical composition and method of using the same” (Chugai Seiyaku Kabushiki Kaisha, priority 1974, dated 1976)", "key": {"[1]": {"conditions": "especially noticeable when continuously administered; cited from earlier work"}, "[2]": {"assay": "Toxicity by continuous administration for 30 days (body weight, deaths)", "format": "in vivo, Wister strain male rats", "conditions": "rat, 50 mg/kg oral once a day", "experimental": "Wister strain male rats weighing 150 ± 20 g were divided into groups of 10 members each, and each group was orally administered with 4-O-methylascochlorin as a suspension in 2% gum arabic aqueous solution in a predetermined dose once a day for 30 days, and the increase in body weight thereof was observed each day that the administration continued. As controls, ascochlorin (50 mg/kg/day) and ethyl-α-(p-chlorophenoxy) isobutylate (500 mg/kg/day) were used. The results are shown in the graph in FIG. 2."}, "Cholesterol in serum": {"system": "Cholesterol in serum", "assay": "Serum cholesterol lowering activity in rats on high-fat feed, single oral dose", "format": "in vivo, Wister-Imamich strain male rats", "conditions": "rat, 75 mg/kg oral, 6 hours after administration", "source_text": "The cholesterol lowering activity of the ascochlorin derivatives of this invention was observed by the use of Wister-Imamich strain male rats weighing 230 ± 30 g which had been bred with the use of high-fat feed comprising 1000 g of powdery chow CLEA CE-2 (sold by NIHON CLEA KABUSHIKI KAISHA) admixed with 10 g of cholesterol, 95 g of hydrogenated coconut oil, 2 g of cholic acid, 150 g of milk casein and 671 g of sucrose.\nThe rats were divided into groups of five members each, and orally administered with a different ascochlorin derivative as a suspension in gum arabic aqueous solution in a dose of 75 mg/kg.body weight. The rats were kept from eating food, and 6 hours after the administration, the blood of each rat was sampled from its heart. The total amount of cholesterol in serum was determined by a modified Zurkowski method (Clinical Chemistry, 10, 451, 1964) with the use of a colorimeter for blood analysis (sold by KYOTO DAIICHI KAGAKU)."}, "Acute toxicity, rat": {"assay": "Acute toxicity, rat", "conditions": "in vivo, male", "source_text": "(§1) Acute toxicity of the ascochlorin derivatives was observed by the use of Wister-Imamichi strain male rats weighing 230 ± 30 g and ddY strain male and female mice (5 weeks old) weighing 20 ±3 g which were divided into groups of 10 members each. Japanese native male rabbits weighing 2 kg ± 300 g which were divided into groups of five members each were also used. The test animals were orally or intraperitoneally administered with a different ascochlorin derivative as a suspension in 5% gum arabic aqueous solution, and the toxicity was compared with that of control in which ascochlorin was used."}, "[3]": {"conditions": "Japanese Patent No. 585,252 and U.S. Pat. No. 3,546,073; cited from earlier work"}, "Acute toxicity, mouse": {"assay": "Acute toxicity, mouse", "conditions": "in vivo", "source_text": "as §1"}, "Lipid in liver and aorta": {"system": "Lipid in liver and aorta", "assay": "Hypolipidemic activity: change of lipid level in organs and aorta abdominalis, 30 days, high-fat feed", "format": "in vivo, Wister strain rats", "conditions": "rat, 10.0 mg/kg oral", "experimental": "Wister strain rats weighing 150 ± 20 g were divided into groups of 10 members each and bred with high-fat feed, the same as that used in Example 1. The rats were orally administered ascochlorin, 4-O-methylascochlorin or ethyl-α-(p-chlorophenoxy) isobutylate in a predetermined dose every morning for 30 days. Six hours after the last administration, liver and aorta of each rat were taken out and lipid level in the organs of each of the rats were determined. Lipid present in the liver and aorta was extracted with methanol-chloroform (1:1) by allowing it to stand overnight and the extract was assayed as to lipid level."}, "[4]": {"assay": "Toxicity by continuous administration for 10 days (body weight)", "format": "in vivo, Wister-Imamichi strain male rats", "conditions": "rat, 10 mg/head oral once a day", "experimental": "Wister-Imamichi strain male rats weighing 230 ± 30 g were divided into four groups of 10 members each, 3 groups of which were orally administered with 4-O-methylascochlorin in a dose of 10 mg/head, 4-O-methylascochlorin in 20 mg/head and ascochlorin in 10 mg/head, respectively, as a suspension in 2% gum arabic aqueous solution once a day for 10 days. The remaining group was administered with 2% gum arabic aqueous solution, the dose and way of administration being identical to those disclosed above. The increase in body weight of the rats of each group was observed every day during the administration. The results are shown in the graph of FIG. 1."}, "blood platelet": {"system": "blood platelet", "assay": "Aggregation inhibition activity of blood platelet (ADP-induced, platelet rich plasma of orally dosed rats)", "format": "in vivo, Wister-Imamich strain male rats", "conditions": "rat, 20 mg/kg oral, 6 hours; adenosine-5'-diphosphate 10^-5 M in platelet rich plasma", "experimental": "In this Example Wister-Imamich strain male rats weighing 230 ± 30 g which had been bred with the use of a commercial chow, CLEA CE-2 were used.\nThe rats were divided into groups of five members each, and orally administered with a different ascochlorin derivative as a suspension in 2% gum arabic aqueous solution in a dose of 20 mg/kg.body weight. Six hours after the administration, the blood of each rat was sampled from the heart and after the addition of citric acid, the blood sample was centrifuged at 1,500 r.p.m. for 10 minutes to obtain platelet rich plasma. The anti-aggregation effect when the concentration of adenosine-5'-diphosphatein the platelet rich plasma is ultimately 10^^-5 M is shown in Table II.\nAs positive controls, ascochlorin, ethyl-α-(p-chlorophenoxy) isobutylate and acetyl salicyclic acid were used. The aggregation inhibition ratio was evaluated in percent by comparing the increase of transmission rate caused by the addition of adenosin-5'-diphosphate to platelet rich plasma of the control group (no medication) with that caused on the groups administered with an ascochlorin derivative which is calculated for 100."}, "[5]": {"conditions": "ascochlorin, background statement; cited from earlier work"}, "Serum Lipid": {"system": "Serum Lipid", "assay": "Hypolipidemic activity: change in level of serum lipid, 30 days, high-fat feed", "format": "in vivo, Wister strain rats", "conditions": "rat"}, "[6]": {"conditions": "10.0 mg/kg oral, average ± standard error"}}, "note": "Entries after “also recorded” stand apart in the source; their conditions may differ."}
{"smiles": "CC(/C=C/[C@@]1(C)[C@H](C)CCC(=O)[C@@H]1C)=C\\Cc1c(O)c(Cl)c(C)c(C=O)c1O", "note": "[ascochlorin, reference compound]", "values": [{"measurement": "toxicity", "setting": "[1]", "value": "strong in toxicity"}, {"measurement": "increase in body weight", "setting": "[2]; 50 mg/kg", "value": "little or no increase in body weight; also recorded: lost weight"}, {"measurement": "rats died during the test period", "setting": "[2]; group of 10", "value": "three"}, {"measurement": "Cholesterol in serum", "setting": "Cholesterol in serum", "value": 101.3, "unit": "mg/dL"}, {"measurement": "LD50", "setting": "Acute toxicity, rat; ip", "value": 258, "unit": "mg/kg"}, {"measurement": "LD50", "setting": "Acute toxicity, rat; oral", "value": "> 7000", "unit": "mg/kg"}, {"measurement": "known activities", "setting": "[3]", "value": "anti-viral, anti-tumor, anti-bacterial and sedative activities and, further, cholesterol-lowering activity"}, {"measurement": "LD50", "setting": "Acute toxicity, mouse; ip, female", "value": 68, "unit": "mg/kg"}, {"measurement": "LD50", "setting": "Acute toxicity, mouse; ip, male", "value": 102, "unit": "mg/kg"}, {"measurement": "LD50", "setting": "Acute toxicity, mouse; po, female", "value": "> 5000", "unit": "mg/kg"}, {"measurement": "LD50", "setting": "Acute toxicity, mouse; po, male", "value": "> 5000", "unit": "mg/kg"}, {"measurement": "Cholesterol in Liver, increasing or reducing ratio based on the control", "setting": "Lipid in liver and aorta", "value": "+6.5"}, {"measurement": "Cholesterol in Tunica intima of aorta abdominalis, increasing or reducing ratio based on the control", "setting": "Lipid in liver and aorta", "value": -4.0}, {"measurement": "Phospholipid in Liver, increasing or reducing ratio based on the control", "setting": "Lipid in liver and aorta", "value": -1.0}, {"measurement": "Triglyceride in Liver, increasing or reducing ratio based on the control", "setting": "Lipid in liver and aorta", "value": -7.3}, {"measurement": "Cholesterol in Liver", "setting": "Lipid in liver and aorta; average ± standard error", "value": "36.2 ± 3.5", "unit": "mg/g"}, {"measurement": "Phospholipid in Liver", "setting": "Lipid in liver and aorta; average ± standard error", "value": "69.5 ± 4.2", "unit": "mg/g"}, {"measurement": "Triglyceride in Liver", "setting": "Lipid in liver and aorta; average ± standard error", "value": "20.2 ± 2.5", "unit": "mg/g"}, {"measurement": "increase in body weight", "setting": "[4]", "value": "increased only slightly in body weight"}, {"measurement": "Aggregation Inhibition Ratio", "setting": "blood platelet", "value": 66.8, "unit": "%"}, {"measurement": "hypolipidemic activity", "setting": "[5]", "value": "inadequate in its hypolipidemic activity"}, {"measurement": "Serum Cholesterol, increasing or reducing ratio based on the control", "setting": "Serum Lipid; 10.0 mg/kg oral", "value": -8.8}, {"measurement": "Serum Free fatty acid, increasing or reducing ratio based on the control", "setting": "Serum Lipid; 10.0 mg/kg oral", "value": -4.0}, {"measurement": "Serum Phospholipid, increasing or reducing ratio based on the control", "setting": "Serum Lipid; 10.0 mg/kg oral", "value": -4.5}, {"measurement": "Serum Triglyceride, increasing or reducing ratio based on the control", "setting": "Serum Lipid; 10.0 mg/kg oral", "value": -10.0}, {"measurement": "Serum β-Lipoprotein, increasing or reducing ratio based on the control", "setting": "Serum Lipid; 10.0 mg/kg oral", "value": -5.6}, {"measurement": "Serum Cholesterol", "setting": "Serum Lipid; [6]", "value": "97.4 ± 4.8", "unit": "mg/dL"}, {"measurement": "Serum Free fatty acid", "setting": "Serum Lipid; [6]", "value": "48.3±4.7", "unit": "μ eq./dl"}, {"measurement": "Serum Phospholipid", "setting": "Serum Lipid; [6]", "value": "130.1 ± 8.4", "unit": "mg/dL"}, {"measurement": "Serum Triglyceride", "setting": "Serum Lipid; [6]", "value": "72.0 ± 13.2", "unit": "mg/dL"}, {"measurement": "Serum β-Lipoprotein", "setting": "Serum Lipid; [6]", "value": "720 ± 114", "unit": "mg/dL"}, {"measurement": "lowering of lipids in serum, liver and aorta (such effects)", "setting": "Serum Lipid; oral, groups of Tables IV and V", "value": "such effects were not observed"}]}
